Measurements from patent US20260315499A1, “2'- {HETEROCYCLYL (ARYL/ALKYL) METHYL} - CANNABIDIOL COMPOUNDS AND PROCESS FOR PREPARATION THEREOF” (COUNCIL OF SCIENTIFIC & INDUSTRIAL RESEARCH, priority 2023, published 2026).
Values joined by “and” are separate entries in the source; they are usually repeats but may differ in a detail not shown here. Equal values may be shown once.

Assays:
[1] = Cell viability assay in macrophage RAW264.7 cells (MTT); type: cell-based; conditions: mouse, read-out: % cell viability ± SD
Method: RAW264.7 cells were seeded in 96-well cell culture plates at a density of 1×10^4 cells per well and incubated overnight at 37° C. with 5% CO2. Next day, the cells were treated with CBD or its derivatives at 5 μM and/or 10 μM concentration for 24 hrs. The MTT dye (2.5 mg/ml, 20 μL) was added to each well 4 hrs before termination (Molecules. 2022, 27, 8068). After 4 hrs of incubation with MTT, the supernatant was discarded, and the formazan crystals were dissolved by adding 100 μL DMSO. The absorbance was recorded at 540 nm on microplate reader (Tecan Infinite Pro).

[2] = Cell viability assay in differentiated neuronal cells (MTT), N2A; type: cell-based; conditions: mouse, read-out: % Cell viability ± SD, N2A
Description: (§1) In the present disclosure outlined herein, a focused library of cannabidiol analogues were studied for possible neuro-protective potential employing cell line-based stress model systems which mimic the biological stress conditions in vitro (J Cell Biochem., 2018, 119(8), 6482-6491).
(§2) Human neuroblastoma cells (SHSY5Y) and mouse neuroblastoma cells (N2A) were procured from American Type Culture Collection (ATCC). SHSY5Y cell cultures were maintained in DMEM F12 (Invitrogen) whereas N2A were cultured in DMEM (Invitrogen) with 10% Fetal Bovine Serum (Gibco) medium, subjected to differentiation to acquire neuronal morphology (employing differentiation media DMEM-F12, 3-5% FBS, (For differentiation, low concentration of FBS was used) and 50 μM retinoic acid). Differentiated cells were later seeded into 96 well plates, at a density of 1×10^4 before being incubated for 48 hrs with the synthesized library. The exhausted culture media was substituted with new culture media containing 0.5 mg/ml MTT dye. Eventually, the OD at 490 nm excitation was measured using a 96-well plate reader. The proportion of viable cells was determined as percentage of absorbance of untreated cultures relative to control.

depression mice model = experiment: In vivo corticosterone induced depression model: Tail Suspension Test (TST); design: species or system mouse (male C57); conditions: A1 20 mg/kg, fluoxetine 18 mg/kg
Method: A1 (20 mg/kg, oral) dissolved in normal saline was given for 3 consecutive weeks following corticosteroid stress. The sucrose preference test was employed, tail suspension test, and forced swim test to evaluate behavioral distress.
Tail Suspension Test (TST) is a behavioral test employed to assess perturbations expected to influence depression like phenotypes. TST is grounded on the reflection that the extent of immobility is allied with depressing phenotype of mice overturned by antidepressants. Mice were positioned 2 cm from their tail tips and 5 cm above the ground suspending the tails using adhesive tape for the free movement (Acta Neuropathol Commun., 2016, 4(1), 108).
The contemporary immobility was alluded to as interruption in motion, where a blind assessor evaluates the disappointed aspect of display before scoring it.

[3] = tested on: differentiated SHSY5Y cell cultures; experiment: Neuroprotective potential in differentiated SHSY5Y after 96 hrs, concentration series with and without corticosterone; type: cell-based, human
Description: Furthermore, A1 intervention in presence of corticosterone evidenced neuroprotective effect against corticosterone induced impairment and cell death.

[4] = Cell viability assay in differentiated neuronal cells (MTT), SHSY5Y; type: cell-based; conditions: human, read-out: % Cell viability ± SD, SHSY5Y
Description: as §1, §2

p TrkB 816 = experiment: Survival pathway protein expression by western blotting in SHSY5Y; type: cell-based, human; conditions: for Relative Protein Expression p TrkB 816: A1 + Cort.
p TrkB 515 = experiment: as above; type: cell-based, human
p-Erk 44/42 = experiment: as above; type: cell-based, human; conditions: for Relative Protein Expression p ERK 44/42: A1 + Cort.
[5] = tested on: mouse neuroblastoma cell line N2A; experiment: In vitro neuroprotection against corticosterone, differentiated N2A, 48 hrs; type: cell-based; conditions: test compound 20 μM + Cort. 400 μM, read-out: % Cell viability ± SD, N2A
Method: as §2
In the next attempt, the neuroprotective properties of the generated library (20 μM, 48 hrs) were assessed employing differentiated human neuroblastoma cell line SHSY5Y and mouse neuroblastoma cell line N2A (Biomol Ther., 2022, 30(6), 570-575). The cells were assaulted with the neurotoxic corticosterone (Cort, 400 μM) for 24 hrs after the overnight preincubation of cells with test molecules as a selection criterion. […]

[6] = In vivo corticosterone induced depression model: effect on body weight; design: species or system mouse (male C57); conditions: 21 days; for Weight (g) ± SD: A1 20 mg/kg oral, fluoxetine 18 mg/kg
Method: In vivo efficacy (ameliorates behavioral despair) of A1 in corticosterone induced model of stress (J. Neurochem., 2018 146, 722 734). […] A1 (20 mg/kg, oral) dissolved in normal saline was given for 3 consecutive weeks following corticosteroid stress. The sucrose preference test was employed, tail suspension test, and forced swim test to evaluate behavioral distress. We noticed that A1 can resurrect mice in stressful situations. […]

[7] = A1 for multiple time spans, corticosterone

C=C(C)[C@@H]1CCC(C)=C[C@H]1c1c(O)cc(CCCCC)c(CN2CCOCC2)c1O [A1, 2′-(morpholin-1-ylmethyl)-cannabidiol]
viability at 24 h, 5 µM ([1]; RAW264.7, 5 μM): 93.1 ± 1.1% | viability at 24 h, 10 µM ([1]; RAW264.7, 10 μM): 83.5 ± 0.6% | viability at 48 h, 20 µM [2]: 114 ± 2.28% | % Immobility (sec) ± SD (dead time) (depression mice model; with Cort. 35 μg/ml): 33.05 ± 5.62 s | % Latency to immobility (sec) ± SD (depression mice model; with Cort. 35 μg/ml): 36.90 ± 14.54 s | % Immobility (sec) ± SD (dead time) (depression mice model; without Cort.): 28.76 ± 9.01 s and 28.76 ± 9.10 s | % Latency to immobility (sec) ± SD (depression mice model; without Cort.): 54.35 ± 9.74 s | viability at 1.25 µM ([3]; Homo sapiens, SH-SY5Y, 96 h, A1 1.25 μM + Cort 400 μM, 96 hrs): 83.8% | viability at 2.5 µM ([3]; Homo sapiens, SH-SY5Y, 96 h, A1 2.5 μM + Cort 400 μM, 96 hrs): 93.6% | viability at 10 µM ([3]; Homo sapiens, SH-SY5Y, 96 h, A1 10 μM + Cort 400 μM, 96 hrs): 113% | viability at 20 µM ([3]; Homo sapiens, SH-SY5Y, 96 h, A1 20 μM + Cort 400 μM, 96 hrs): 108% | viability at 40 µM ([3]; Homo sapiens, SH-SY5Y, 96 h, A1 40 μM + Cort 400 μM, 96 hrs): 102% | neuroprotection against corticosterone (in words) ([3]; in presence of corticosterone): substantial level of neuroprotection by significantly lowering the corticosterone cytotoxic activity | viability at 48 h, 20 µM [4]: 115.7 ± 0.71% | Relative Protein Expression p TrkB 816 (p TrkB 816; 0 hr): 1.012 | Relative Protein Expression p TrkB 816 (p TrkB 816; 0.5 hr): 1.309 | Relative Protein Expression p TrkB 816 (p TrkB 816; 1 hr): 10.54 | Relative Protein Expression p TrkB 816 (p TrkB 816; 2 hr): 16.76 | Relative Protein Expression p TrkB 816 (p TrkB 816; 4 hr): 23.54 | expression of p TrkB 816 (in words) (p TrkB 816; [7]): remarkably increased | Relative Protein Expression p TrkB 515 (p TrkB 515; A1 5 μM, 6 hrs): 0.23 | Relative Protein Expression p TrkB 515 (p TrkB 515; A1 + Cort., 0 hr): 1.019 | Relative Protein Expression p TrkB 515 (p TrkB 515; A1 + Cort., 0.5 hr): 2.277 | Relative Protein Expression p TrkB 515 (p TrkB 515; A1 + Cort., 1 hr): 6.57 | Relative Protein Expression p TrkB 515 (p TrkB 515; A1 + Cort., 2 hr): 8.707 | Relative Protein Expression p TrkB 515 (p TrkB 515; A1 + Cort., 4 hr): 8.145 | expression of p TrkB 515 (in words) (p TrkB 515; [7]): remarkably increased | Relative Protein Expression p ERK 44/42 (p-Erk 44/42; 0 hr): 1.00 | Relative Protein Expression p ERK 44/42 (p-Erk 44/42; 0.5 hr): 1.32 | Relative Protein Expression p ERK 44/42 (p-Erk 44/42; 1 hr): 3.29 | Relative Protein Expression p ERK 44/42 (p-Erk 44/42; 2 hr): 8.33 | Relative Protein Expression p ERK 44/42 (p-Erk 44/42; 4 hr): 9.69 | Relative Protein Expression p ERK 44/42 (p-Erk 44/42; 6 hr): 10.62 | expression of p-Erk 44/42 (in words) (p-Erk 44/42; [7]): remarkably increased | viability at 20 µM [5]: 97.6 ± 1.97% | toxicity / weight fluctuations (in words) ([6]; 20 mg/kg oral): no discernible toxicity | Weight (g) ± SD ([6]; with Cort. 35 μg/ml): 36.75 ± 3.88 g | Weight (g) ± SD ([6]; without Cort.): 42.88 ± 2.69 g
